Measured values: patent publication US7732666B1, “O-methyltransferase gene from sorghum cloning, expression, transformation and characterization” (priority 2006, dated 2010)
Like-named read-outs stand apart in the source and are kept apart here.

T1: SbOMT1 (Sorghum bicolor, UniProt A8QW52)
T1 construct: full-length open reading frames for all three OMTs were overexpressed in E. coli as N-terminal polyhistidine fusions; polyhistidine (pET15b) (N); made in house; host or cells: E. coli BL21/DE3
T1 sequence (A8QW52 1-376): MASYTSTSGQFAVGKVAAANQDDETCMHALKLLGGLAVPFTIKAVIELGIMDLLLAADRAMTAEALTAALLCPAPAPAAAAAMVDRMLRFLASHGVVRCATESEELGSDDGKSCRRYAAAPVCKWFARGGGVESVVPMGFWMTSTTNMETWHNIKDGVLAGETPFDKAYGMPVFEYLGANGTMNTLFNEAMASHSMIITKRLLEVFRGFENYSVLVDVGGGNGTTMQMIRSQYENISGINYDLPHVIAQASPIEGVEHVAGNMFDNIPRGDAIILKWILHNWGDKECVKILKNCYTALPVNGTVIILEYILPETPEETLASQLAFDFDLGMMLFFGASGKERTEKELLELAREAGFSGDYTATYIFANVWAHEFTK

T2: SbOMT2 (Sorghum bicolor, UniProt A8QW51)
T2 construct: full-length open reading frames for all three OMTs were overexpressed in E. coli as N-terminal polyhistidine fusions; polyhistidine (pET15b) (N); made in house; host or cells: E. coli BL21/DE3
T2 sequence (A8QW51 1-372): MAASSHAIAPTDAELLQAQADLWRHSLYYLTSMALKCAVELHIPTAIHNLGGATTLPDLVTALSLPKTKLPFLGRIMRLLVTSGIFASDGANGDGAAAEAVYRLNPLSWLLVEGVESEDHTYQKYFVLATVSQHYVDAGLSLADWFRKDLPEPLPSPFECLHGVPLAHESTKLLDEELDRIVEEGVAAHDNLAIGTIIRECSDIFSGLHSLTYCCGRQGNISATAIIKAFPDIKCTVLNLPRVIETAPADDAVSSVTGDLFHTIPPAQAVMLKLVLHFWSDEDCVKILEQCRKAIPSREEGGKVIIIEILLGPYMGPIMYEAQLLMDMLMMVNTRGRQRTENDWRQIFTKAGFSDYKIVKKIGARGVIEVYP

B1: SbOMT1 (Sorghum bicolor) (protein)
chain: T1 sequence (A8QW52 1-376)

Key:
SbOMT1 [1] = molecular target: T1, SbOMT1; experiment: GC-MS analysis of products of recombinant SbOMT1 reacted with resveratrol; format: biochemical
Source text: (§1) The products from these reactions were then chemically analyzed by gas chromatography/mass spectroscopy. […] Thus, only about 2% of the product obtained was pterostilbene; 88% was 3,5-dihydroxy-4′-methoxystilbene (FIG. 7B).

SbOMT1 [2] = molecular target: T1, SbOMT1; experiment: OMT enzymatic assay (radiometric, 14C-SAM) with recombinant SbOMT1; format: biochemical; conditions: relative to eugenol = 100%; 30 min at 30° C.
SbOMT3 = molecular target: T3, SbOMT3 (Sorghum bicolor, UniProt A8QW53, DUP296-296); format: biochemical; conditions: for Relative Activity (%) of Recombinant SbOMT3: relative to 5-n-pentyl-resorcinol = 100%, 30 min at 30° C.; for Km: recombinant SbOMT3, alkylresorcinols and co-substrate SAM
T3 construct: full-length open reading frames for all three OMTs were overexpressed in E. coli as N-terminal polyhistidine fusions; polyhistidine (pET15b) (N); made in house; host or cells: E. coli BL21/DE3
Description: (§2) Substrate specificities and kinetic parameters for recombinant OMTs were determined using to a modified protocol based on Wang and Pichersky (1999. Arch. Biochem. Biophys. 368: 172-180). All enzymatic assays consisted of 90 μL of assay buffer (250 mM Tris-HCl, pH 7.5, 10 mM DTT), 200 μL of purified enzyme preparation (200 μg protein/ml in), 5 μL of a 10 mM substrate stock solution (dissolved in 100% ethanol), and 5 μL of S-[methyl-^14C] adenosyl-L-methionine (40-60 mCi/mmol, 0.1 mCi/ml; ICN Biomedicals, Irvine, Calif.). Reactions were incubated for 30 min at 30° C. using a Thermomixer (Brinkman Instrument, Westbury, N.Y.), then quenched by addition of 25 μL of 6 N HCl. Radiolabeled products were subsequently extracted by the addition of 1 mL of hexane:ethyl acetate (1:1 vol/vol), and 300 μL of the (upper) organic phase were transferred to scintillation vials containing 5 mL of Ultima Gold scintillation fluid (Packard BioScience, Meriden, CT). Scintillation counts were performed using a Tri-Carb 1600TR Liquid Scintillation Analyzer (Packard BioScience). Protein concentrations and time points used for activity measurements were controlled to insure linearity of the assays. Kinetic parameters were determined from assays performed in triplicate as described above, but with substrate concentrations ranging from 10 μM to 10 mM. Data from enzyme kinetics experiments were fit to the Michaelis-Menten equation using the SigmaPlot v. 9.01 enzyme kinetics module (Systat Software, Inc., Point Richmond, Calif.).
(§3) A panel of benzene-derivatives containing different functional groups and substitution patterns were tested in enzyme assays with all three recombinant enzymes (Table 2), including a series of 5-n-alkylresorcinols of increasing chain length, as well as 5-n-pentadecatrienyl resorcinol, the proposed sorgoleone pathway intermediate and in vivo substrate for the participating OMT enzyme (FIG. 1). For these analyses, full-length open reading frames for all three OMTs were overexpressed in E. coli as N-terminal polyhistidine fusions, purified using an activated Ni-column, then radiometrically assayed in the presence of different substrates as described by Wang and Pichersky (1999, supra), with slight modifications.

[3] = tested on: human breast cancer and murine lymphoid neoplasma cell lines; conditions: cited from earlier work
[4] = tested on: Candida albicans, Cryptococcus neoformans, Staphylococcus aureus, and methicillin-resistant S. aureus; conditions: Rimando et al. 2003a; cited from earlier work
[5] = tested on: Phaeoacremonium aleophilum, Phaeomoniella chlamydospora, Libertella blepharis, Fomitiporia punctata and Stereum hirsutum; conditions: Mazzullo et al. 2000; cited from earlier work
SbOMT2 = molecular target: T2, SbOMT2; experiment: Reaction of recombinant SbOMT2 with resveratrol, GC-MS analysis; format: biochemical
Source text: as §1

CCCCCCc1cc(O)cc(O)c1 = experiment: purified protein, by the assay type; format: biochemical, Sorghum bicolor; conditions: other: recombinant SbOMT3, alkylresorcinols and co-substrate SAM; pH 7.5; 30.0 °C
Description: as §2, §3

CCCCc1cc(O)cc(O)c1 = experiment: purified protein, by the assay type; format: biochemical, Sorghum bicolor; conditions: other: recombinant SbOMT3, alkylresorcinols and co-substrate SAM; pH 7.5; 30.0 °C
Description: as §2, §3

CCCCCc1cc(O)cc(O)c1 = experiment: purified protein, by the assay type; format: biochemical, Sorghum bicolor; conditions: other: recombinant SbOMT3, alkylresorcinols and co-substrate SAM; pH 7.5; 30.0 °C
Description: as §2, §3

CCCCCCCc1cc(O)cc(O)c1 = experiment: purified protein, by the assay type; format: biochemical, Sorghum bicolor; conditions: other: recombinant SbOMT3, alkylresorcinols and co-substrate SAM; pH 7.5; 30.0 °C
Description: as §2, §3

[6] = substrate: Oc1ccc(C=Cc2cc(O)cc(O)c2)cc1; experiment: purified protein, by the assay type; conditions: other: recombinant SbOMT1, substrate resveratrol; pH 7.5; 30.0 °C
[7] = recombinant SbOMT3, alkylresorcinols

T3 sequence (A8QW53 other isoform, or with tags, fused parts or gaps DUP296-296): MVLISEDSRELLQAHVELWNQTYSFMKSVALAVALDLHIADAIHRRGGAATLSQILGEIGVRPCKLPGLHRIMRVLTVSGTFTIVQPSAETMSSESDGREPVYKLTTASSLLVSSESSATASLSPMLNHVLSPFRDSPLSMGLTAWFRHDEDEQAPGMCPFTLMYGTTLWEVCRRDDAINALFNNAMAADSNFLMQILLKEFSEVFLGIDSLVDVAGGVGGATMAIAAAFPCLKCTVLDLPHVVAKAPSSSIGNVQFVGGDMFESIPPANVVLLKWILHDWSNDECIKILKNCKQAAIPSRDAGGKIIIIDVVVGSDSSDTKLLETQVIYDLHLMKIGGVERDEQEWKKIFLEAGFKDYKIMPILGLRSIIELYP

Molecule | Relative Activity (%) of Recombinant SbOMT1 (SbOMT1 [2]) | Relative Activity (%) of Recombinant SbOMT3 (SbOMT3) | also measured
COc1ccc(C=Cc2cc(O)cc(O)c2)cc1 [3,5-dihydroxy-4′-methoxystilbene] |  |  | share of the product obtained from reaction of SbOMT1 with resveratrol (SbOMT1 [1]): 88%
COc1ccc(O)cc1 [4-Methoxyphenol] | 8.3 ± 0.5% | 3.3 ± 0.6% | 
CCCCc1cc(O)cc(O)c1 [5-n-Butyl-resorcinol] | 1.1 ± 0.1% | 42.0 ± 1.2% | 
CCCCCCCc1cc(O)cc(O)c1 [5-n-Heptyl-resorcinol] | 0% | 27.2 ± 1.3% | 
CCCCCCc1cc(O)cc(O)c1 [5-n-Hexyl-resorcinol] | 0% | 79.4 ± 7.6% | 
CCCCCCCCCc1cc(O)cc(O)c1 [5-n-Nonyl-resorcinol] | 0% | 3.3 ± 0.8% | 
CCCCCCCCCCCCCCCc1cc(O)cc(O)c1 [5-n-Pentadecyl-resorcinol] | <1.0% | 5.0 ± 0.4% | 
CCCCCc1cc(O)cc(O)c1 [5-n-Pentyl-resorcinol] |  | 100 ± 2.2% | 
CCCc1cc(O)cc(O)c1 [5-n-Propyl-resorcinol] | 2.2 ± 0.9% | 11.8 ± 0.2% | Kcat (SbOMT3; [7]): 1.9 s^−1 × 10^4; V max (SbOMT3; [7]): 15.6 nmol/mg/h; Km (SbOMT3): 1440 µM
C=CC/C=C\C/C=C\CCCCCCCc1cc(O)cc(O)c1 [5-n-[8′, 11′, 14′]-Pentadecatrienyl-resorcinol] |  | 14.9 ± 4.3% | activity of SbOMT3 relative to that for 5-pentadecyl resorcinol (SbOMT3; higher than saturated side chain analogue of identical length): approximately 3 fold
O=C(O)/C=C/c1ccc(O)c(O)c1 [Caffeic acid] |  | 3.6 ± 0.6 3.6 ± 0.6% | 
Oc1ccccc1O [Catechol] |  | 3.6 ± 0.6 3.6 ± 0.6% | 
C=CCc1ccc(O)c(OC)c1 [Eugenol] | 100 ± 5.2% | 3.2 ± 0.5% | 
COc1cc(/C=C/C(=O)O)ccc1O [Ferulic acid] | 3.1 ± 0.3% | 3.5 ± 0.6% | 
COc1ccccc1O [Guaiacol] | 7.8 ± 0.5% | 3.2 ± 0.6% | 
COc1cc(C)cc(O)c1 [Orcinol monomethyl ether] | 49.6 ± 1.6% | 3.5 ± 0.5% | 
Cc1cc(O)cc(O)c1 [Orcinol] | 1.3 ± 0.7% | 4.5 ± 0.1% | 
COc1cc(/C=C/c2ccc(O)cc2)cc(OC)c1 [Pterostilbene] |  |  | cytotoxicity against cancer cell lines [3]: cytotoxic
COc1cccc(O)c1 [Resorcinol monomethyl ether] | 24.8 ± 1.1% | 3.2 ± 0.7% | 
Oc1cccc(O)c1 [Resorcinol] |  | 4.1 ± 0.1% | 
Oc1ccc(C=Cc2cc(O)cc(O)c2)cc1 [Resveratrol] |  |  | inhibition of human pathogens [4]: ineffective; inhibition of esca fungi (mycelial growth) [5]: did not inhibit mycelial growth; reaction of SbOMT2 with resveratrol (SbOMT2): did not react
C[S+](CC[C@H](N)C(=O)[O-])C[C@H]1O[C@@H](n2cnc3c(N)ncnc32)[C@H](O)[C@@H]1O (stereo partly drawn) [SAM, S-Adenosyl-L-Methionine] |  |  | Km (SbOMT3; read-out: Km): 67.5 µM
O=C(O)/C=C/c1ccc(O)cc1 [p-Coumaric acid] | 0% | 3.5 ± 0.4% | 
SbOMT3 (Sorghum bicolor; DUP296-296) |  |  | Km (CCCCCCc1cc(O)cc(O)c1): 72 µM; Vmax (CCCCCCc1cc(O)cc(O)c1): 0.00042 µmol/min/mg; kcat (CCCCCCc1cc(O)cc(O)c1): 0.0003 s⁻¹; kcat/Km (CCCCCCc1cc(O)cc(O)c1): 4.2 M⁻¹ s⁻¹; Km (CCCCc1cc(O)cc(O)c1): 481 µM; Vmax (CCCCc1cc(O)cc(O)c1): 0.00055 µmol/min/mg; kcat (CCCCc1cc(O)cc(O)c1): 0.00039 s⁻¹; kcat/Km (CCCCc1cc(O)cc(O)c1): 0.81 M⁻¹ s⁻¹; Km (CCCCCc1cc(O)cc(O)c1): 152 µM; Vmax (CCCCCc1cc(O)cc(O)c1): 0.000653 µmol/min/mg; kcat (CCCCCc1cc(O)cc(O)c1): 0.00047 s⁻¹; kcat/Km (CCCCCc1cc(O)cc(O)c1): 3.1 M⁻¹ s⁻¹; Km (CCCCCCCc1cc(O)cc(O)c1): 23 µM; Vmax (CCCCCCCc1cc(O)cc(O)c1): 0.000173 µmol/min/mg; kcat (CCCCCCCc1cc(O)cc(O)c1): 0.00012 s⁻¹; kcat/Km (CCCCCCCc1cc(O)cc(O)c1): 5.2 M⁻¹ s⁻¹
B1 |  |  | Km [6]: 16.9 ± 1.2 µM; Vmax [6]: 0.00014 µmol/min/mg; kcat [6]: 0.0001 s⁻¹; kcat/Km [6]: 5.9 M⁻¹ s⁻¹
